Test results taken from publication PMC3509320 (Journal of medicinal chemistry, 2012).

Tests used:
h5-HT4 = h5-HT4 (Homo sapiens, UniProt Q13639); experiment: 5-HT4R intrinsic activity functional assay; conditions: h5-HT4, functional assay at CEREP
5-HT4R [1] = molecular target: 5-HT4R (Mus musculus, UniProt P97288); experiment: In vivo competition with [125I]1, ex vivo autoradiography of mouse brain
5-HT4R [2] = molecular target: 5-HT4R (Rattus norvegicus, UniProt Q62758); experiment: In vitro autoradiographic competition with [125I]1 on rat brain sections; format: binding
[3] = SPECT tracer ref 19; cited from earlier work

h5-HT4, sequence (Q13639 whole entry): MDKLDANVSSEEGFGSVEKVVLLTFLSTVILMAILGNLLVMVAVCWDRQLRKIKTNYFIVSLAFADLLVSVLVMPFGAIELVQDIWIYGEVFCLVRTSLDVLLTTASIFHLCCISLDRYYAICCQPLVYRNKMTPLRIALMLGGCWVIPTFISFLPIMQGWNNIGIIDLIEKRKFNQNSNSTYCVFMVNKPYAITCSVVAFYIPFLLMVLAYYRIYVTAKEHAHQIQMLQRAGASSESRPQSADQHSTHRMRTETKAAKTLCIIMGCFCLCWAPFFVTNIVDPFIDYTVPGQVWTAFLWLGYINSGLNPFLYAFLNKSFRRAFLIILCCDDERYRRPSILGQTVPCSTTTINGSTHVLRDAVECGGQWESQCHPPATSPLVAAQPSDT
5-HT4R (Mus musculus, UniProt P97288), sequence (P97288 whole entry): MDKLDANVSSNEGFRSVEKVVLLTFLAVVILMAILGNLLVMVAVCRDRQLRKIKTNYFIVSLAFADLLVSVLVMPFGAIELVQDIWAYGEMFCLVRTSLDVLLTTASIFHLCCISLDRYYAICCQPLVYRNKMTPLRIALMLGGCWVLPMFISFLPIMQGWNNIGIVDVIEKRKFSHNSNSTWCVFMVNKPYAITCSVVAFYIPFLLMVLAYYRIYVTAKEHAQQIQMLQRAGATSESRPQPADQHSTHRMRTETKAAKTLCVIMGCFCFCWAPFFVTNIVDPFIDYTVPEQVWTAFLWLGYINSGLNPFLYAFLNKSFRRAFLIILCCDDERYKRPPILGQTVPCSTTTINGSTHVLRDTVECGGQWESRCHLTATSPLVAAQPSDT
5-HT4R (Rattus norvegicus, UniProt Q62758), sequence (Q62758 whole entry): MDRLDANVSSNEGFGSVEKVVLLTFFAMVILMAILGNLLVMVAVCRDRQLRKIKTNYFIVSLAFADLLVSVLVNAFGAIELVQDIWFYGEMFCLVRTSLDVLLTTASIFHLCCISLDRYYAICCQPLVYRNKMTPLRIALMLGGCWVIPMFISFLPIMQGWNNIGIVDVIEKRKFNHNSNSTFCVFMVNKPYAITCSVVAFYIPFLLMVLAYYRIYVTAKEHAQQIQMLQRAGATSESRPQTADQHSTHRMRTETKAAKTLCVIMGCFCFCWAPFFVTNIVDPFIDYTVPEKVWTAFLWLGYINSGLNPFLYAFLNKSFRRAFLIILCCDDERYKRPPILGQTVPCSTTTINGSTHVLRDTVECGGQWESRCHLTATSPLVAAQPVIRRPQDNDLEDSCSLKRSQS

CCCN1CCC(COc2nc3c(I)cccc3c3ccccc23)CC1 [Compound 11a, 4-Iodo-6-(1-propylpiperidin-4-yl)methyloxyphenanthridine]
efficacy (intrinsic activity) (h5-HT4): full antagonists

Fc1cccc2c1nc(OCC1CCN(CCCc3ccc(I)cc3)CC1)c1cccnc12 [Compound 11d, 7-Fluoro-5-{1-[3-(4-iodophenyl)propyl]piperidin-4-yl}methyloxybenzo[h]-1,6-naphthyridine]
efficacy (intrinsic activity) (h5-HT4): full antagonists
blood brain barrier crossing (5-HT4R [1]; i.v. 50 µg/kg): able to cross the blood brain barrier
specific binding of [125I]1 ex vivo (5-HT4R [1]; i.v. co-injection of 50 µg/kg 11d, compared to [125I]1 alone): markedly reduced
5-HT4R-specific [125I]1 radioactivity in autoradiograms (5-HT4R [2]; 10 pM of 11d with 100 pM [125I]1, rat brain sections): decrease in the 5-HT4R-specific radioactivity
5-HT4R-specific [125I]1 radioactivity in autoradiograms (5-HT4R [2]; 1 nM of 11d with 100 pM [125I]1, rat brain sections): almost complete abolishment of the signal

CCCN1CCC(COc2nc3c(F)cccc3c3ncccc23)CC1 [Compound 4v, 7-Fluoro-5-(1-propylpiperidin-4-yl)methyloxybenzo[h]-1,6-naphthyridine]
efficacy (intrinsic activity) (h5-HT4): full antagonists

CCCCN1CCC(COC(=O)c2cc([123I])c(N)c3c2OCCO3)CC1 [[^123I]1, (1-butylpiperidin-4-yl)methyl-8-amino-7-iodo[^123I]-2,3-dihydrobenzo[b][1,4]dioxine-5-carboxylate]
brain penetration [3]: low brain penetration
metabolism [3]: rapid metabolism

CCCN1CCC(COc2nc3c(I)cccc3c3ncccc23)CC1 [Compound 11b, 7-Iodo-5-(1-propylpiperidin-4-yl)methyloxybenzo[h]-1,6-naphthyridine]
efficacy (intrinsic activity) (h5-HT4): full antagonists
